The term IC50 denotes the concentration needed to halve the response being measured.

Experimental findings from patent US20250257041A1, “INDUCERS OF INTEGRATED STRESS RESPONSE TO TREAT CANCER” (The Board of Regents of The University of Texas System, priority 2022, published 2025) are described below.

The first experiment deals with HCT116 WT. Description: Proliferation of HCT116 colorectal cell line, Cell TiterGlo. It counts as cell-based, human. Conditions: Homo sapiens, HCT-116, wild type HCT116; 10-point dose response in triplicate; multiple values = separate independent experiments; read-out: HCT116 IC50 (uM) HCT116 WT. How it is done:
Briefly, compounds were tested for their effect on proliferation of HCT116 colorectal cell lines using Cell TiterGlo (Promega). Each compound was tested in a 10-point dose response experiment in triplicate. Multiple values in the column titled HCT116 WT reflect separate independent experiments. The three columns titled “HCT116 WT (repeat)”, “HCT116-CGN2KO” and “HCT116 WT+ISRIB” provide data for selected compounds that were tested simultaneously under three conditions. The HCT116 WT column lists IC50 against the wild type HCT116 colorectal cancer cell line. The HCT116-CGN2KO lists IC50 data for cells in which one component of the integrated stress response, GCN2, has been knocked out using CRISPR technology.
With `O=C(Nc1cccc(-c2ccc(NC(=O)c3ccccc3Cl)cc2)c1)c1ccccc1` [SW394484, N-(3′-benzamido-[1,1′-biphenyl]-4-yl)-2-chlorobenzamide], the half-maximal inhibitory concentration (IC50) is 3.94 µM.
On the same count and under the same terms, the value for `Cn1nc(-c2ccc(NC(=O)c3ccccc3-c3cncnc3)cc2)cc1NC(=O)c1ccccc1` [SW394485, N-(4-(5-Benzamido-1-methyl-1H-pyrazol-3-yl)phenyl)-2-(pyrimidin-5-yl)benzamide] was 0.107 µM.
Turning to `Cn1nc(-c2ccc(NC(=O)c3ccccc3-c3cccnc3)cc2)cc1NC(=O)c1ccccc1` [SW394486, N-(4-(5-Benzamido-1-methyl-1H-pyrazol-3-yl)phenyl)-2-(pyridin-3-yl)benzamide], the IC50 turned out to be 0.025 µM.
Same read-out and setting: for `C#Cc1cccc(C(=O)Nc2cc(-c3ccc(NC(=O)c4cccnc4Cl)cc3)nn2C)c1` [SW394487, 2-Chloro-N-(4-(5-(3-ethynylbenzamido)-1-methyl-1H-pyrazol-3-yl)phenyl)nicotinamide] the value was 0.023 µM; for `Cn1nc(-c2ccc(NC(=O)C3CCCC3)cc2)cc1NC(=O)c1ccccc1` [SW394488, N-(3-(4-(Cyclopentanecarboxamido)phenyl)-1-methyl-1H-pyrazol-5-yl)benzamide], 0.32 µM; for `Cn1nc(-c2ccc(NC(=O)C3CCN(C(=O)OC(C)(C)C)CC3)cc2)cc1NC(=O)c1ccccc1` [SW394490, tert-butyl4-((4-(5-benzamido-1-methyl-1H-pyrazol-3-yl)phenyl)carbamoyl)piperidine-1-carboxylate], 3.84 µM.
Still for that read-out and setting: the value for `Cn1nc(-c2ccc(NC(=O)C3CCC3)cc2)cc1NC(=O)c1ccccc1` [SW394491, N-(3-(4-(Cyclobutanecarboxamido)phenyl)-1-methyl-1H-pyrazol-5-yl)benzamide] was 12 µM; that for `Cn1nc(-c2ccc(NC(=O)C3CCCCCC3)cc2)cc1NC(=O)c1ccccc1` [SW394515, N-(4-(5-Benzamido-1-methyl-1H-pyrazol-3-yl)phenyl)cycloheptanecarboxamide] was 0.044 µM.
In the case of `Cn1nc(-c2ccc(NC(=O)C3CCOCC3)cc2)cc1NC(=O)c1ccccc1` [SW394517, N-(4-(5-Benzamido-1-methyl-1H-pyrazol-3-yl)phenyl)tetrahydro-2H-pyran-4-carboxamide], the IC50 came out at 0.32 µM.
The same measure, in the same setting: for `Cc1ncccc1C(=O)Nc1ccc(-c2cc(NC(=O)c3ccccc3)n(C)n2)cc1` [SW394518, N-(4-(5-Benzamido-1-methyl-1H-pyrazol-3-yl)phenyl)-2-methylnicotinamide] the value was 0.016 µM; for `Cc1ccncc1C(=O)Nc1ccc(-c2cc(NC(=O)c3ccccc3)n(C)n2)cc1` [SW394519, N-(4-(5-Benzamido-1-methyl-1H-pyrazol-3-yl)phenyl)-4-methylnicotinamide], 0.25 µM; for `Cn1nc(-c2ccc(NC(=O)c3ccccc3COCCNC(=O)OC(C)(C)C)cc2)cc1NC(=O)c1ccccc1` [SW394532, tert-butyl (2-((2-((4-(5-benzamido-1-methyl-1H-pyrazol-3-yl)phenyl)carbamoyl)benzyl)oxy)ethyl)carbamate], 0.121 µM.
Still for that read-out and setting: for `Cn1nc(-c2ccc(NC(=O)c3ccccc3C#CCNC(=O)OC(C)(C)C)cc2)cc1NC(=O)c1ccccc1` [SW394544, tert-butyl(3-(2-((4-(5-benzamido-1-methyl-1H-pyrazol-3-yl)phenyl)carbamoyl)phenyl)prop-2-yn-1-yl)carbamate] the value was 1.2 µM; for `Cn1nc(-c2ccc(NC(=O)c3ccccc3Cl)cc2)cc1NC(=O)C1CCCCC1` [SW394546, 2-Chloro-N-(4-(5-(Cyclohexanecarboxamido)-1-methyl-1H-pyrazol-3-yl)phenyl)benzamide], 0.033 µM.
On the same count and under the same terms, the value for `Cn1nc(-c2ccc(NC(=O)c3ccccc3Cl)cc2)cc1NC(=O)C1CCOCC1` [SW394547, N-(3-(4-(2-Chlorobenzamido)phenyl)-1-methyl-1H-pyrazol-5-yl)tetrahydro-2H-pyran-4-car-boxamide] was 0.05 µM; that for `Cn1nc(-c2ccc(NC(=O)c3ccccc3-c3ccc([N+](=O)[O-])cc3)cc2)cc1NC(=O)c1ccccc1` [SW394548, N-(4-(5-Benzamido-1-methyl-1H-pyrazol-3-yl)phenyl)-4′-nitro-[1,1′-biphenyl]-2-carboxam-ide] was 1.13 µM; that for `C#Cc1cccc(C(=O)Nc2cc(-c3ccc(NC(=O)c4ccccc4-c4ccc(N=[N+]=[N-])cc4)cc3)nn2C)c1` [SW394549, 4′-Azido-N-(4-(5-(3-ethynylbenzamido)-1-methyl-1H-pyrazol-3-yl)phe-nyl)[1,1′-biphenyl]-2-carboxamide] was 4.1 µM.
With `O=C(Nc1ccc(-c2cc(NC(=O)c3ccccc3)on2)cc1)c1ccccc1` [SW394572, N-(4-(5-benzamidoisoxazol-3-yl)phenyl)benzamide], the concentration for half-maximal inhibition (IC50) was 5.8 µM.
On the same count and under the same terms, for `Cc1ncncc1C(=O)Nc1ccc(-c2cc(NC(=O)c3ccccc3)n(C)n2)cc1` [SW394598, N-(4-(5-Benzamido-1-methyl-1H-pyrazol-3-yl)phenyl)-4-methylpyrimidine-5-carboxamide] the value was 0.55 µM; for `Cn1nc(-c2ccc(NC(=O)c3ccccc3Cl)cc2)cc1NC(=O)C1CCCCCC1` [SW394599, N-(3-(4-(2-Chlorobenzamido)phenyl)-1-methyl-1H-pyrazol-5-yl)cycloheptanecarboxamide], 0.05 µM; for `Cn1nc(-c2ccc(NC(=O)c3ccccc3Cl)cc2)cc1NC(=O)C1CCCC1` [SW394600, 2-Chloro-N-(4-(5-(cyclopentanecarboxamido)-1-methyl-1H-pyrazol-3-yl)phenyl)benzamide], 0.051 µM.
Same read-out and setting: the value for `Cn1nc(-c2ccc(NC(=O)c3ccccc3Cl)cc2)cc1NC(=O)C1CCC(F)(F)CC1` [SW394602, 2-Chloro-N-(4-(5-(4,4-difluorocyclohexane-1-carboxamido)-1-methyl-1H-pyrazol-3-yl)phen-yl)benzamide] was 0.049 µM; that for `Cn1nc(-c2ccc(NC(=O)c3cccnc3C(F)(F)F)cc2)cc1NC(=O)c1ccccc1` [SW394603, N-(4-(5-Benzamido-1-methyl-1H-pyrazol-3-yl)phenyl)-2-(trifluoromethyl)nicotinamide] was 0.02 µM.
With `Cn1nc(-c2ccc(NC(=O)c3cccnc3C(F)(F)F)cc2)cc1NC(=O)c1ccccc1F` [SW394629, N-(4-(5-(2-Fluorobenzamido)-1-methyl-1H-pyrazol-3-yl)phenyl)-2-(trifluoromethyl)nicotinamide], the IC50 is 0.017 µM.
As for `Cc1ncccc1C(=O)Nc1ccc(-c2cc(NC(=O)c3ccccc3Cl)n(C)n2)cc1` [SW394630, N-(4-(5-(2-Chlorobenzamido)-1-methyl-1H-pyrazol-3-yl)phenyl)-2-methylnicotinamide], the IC50 was found to be 0.014 µM.

The experiment is the same for the next values; noted with them: wild type HCT116; 10-point dose response in triplicate; multiple values = separate independent experiments.
Take `O=C(Nc1cccc(-c2ccc(NC(=O)c3ccccc3Cl)cc2)n1)c1ccccc1` [SW394535, N-(4-(6-benzamidopyridin-2-yl)phenyl)-2-chlorobenzamide]: the “HCT116 IC50 (uM) HCT116 WT” value was “inactive”.
The same measure, in the same setting: the value for `O=C(Nc1ccc(-c2nnc(NC(=O)c3ccccc3Cl)o2)cc1)c1ccccc1Cl` [SW394597, 2-chloro-N-(4-(5-(2-chlorobenzamido)-1,3,4-oxadiazol-2-yl)phenyl)benzamide] was “inactive”.

The experiment is the same for the next values; noted with them: wild type HCT116; 10-point dose response in triplicate; multiple values = separate independent experiments; read-out: HCT116 IC50 (uM) HCT116 WT.
Consider `Cn1nc(-c2ccc(NC(=O)N3CCCCC3)cc2)cc1NC(=O)c1ccccc1` [SW394601, N-(4-(5-benzamido-1-methyl-1H-pyrazol-3-yl)phenyl)piperidine-1-carboxamide], for which the 50% inhibitory concentration (IC50) was 7.4 µM.
